The subject of assay [1] is MCP1/CCL2 secretion. Description: MCP1/CCL2 secretion by primary human hepatocytes co-treated with sFA+TNF-α, ELISA after 24h. The format is cell-based. Details: Rx effect / Rx effect (MCP1): scale not given here. Conditions: for Rx effect: MCP1; for MCP1 level / MCP1 secretion compared to baseline (sFA+TNF-α): Results 1, donors 1 and 2, AA compositions at 20X; for MCP1 level / MCP1 secretion level compared to the baseline (sFA+TNF-α): Results 2, donor 2. The method, then: Hepatocyte lipotoxicity appears to be a central driver of hepatic cellular injury via oxidative stress and endoplasmic reticulum (ER) stress. The ability of amino acids combined to therapeutics agents (Rx) to influence steatosis (lipid accumulation) and inflammation in hepatocytes was assessed using human primary hepatocytes purchased from two sources: Lonza and Sekisui Xenotech. Primary hepatocytes from two healthy human donor were seeded on day 0 at density of 60000 cells in 96 well optical microplates (Thermofisher) in hepatocyte plating media (William's E medium (Gibco) supplemented with 10% heat-inactivated FBS (Atlanta Bio), 2mM Glutamax (Gibco), and 0.2% Primocin (InVivoGen) and incubated for 6 hours at 37° C., 5% CO2. After 6 hours, cells were washed twice and incubated overnight at 37° C., 5% CO2 in hepatocytes plating media. On day 1, cells were washed twice and incubated for 24h in Hepatocytes defined medium (Corning) supplemented with 2mM Glutamax (Gibco), and 1x Penicillin/Streptomycin in the same conditions described above. On day 2, cells were washed twice with DPBS 1X (Gibco) and maintained in amino acid-free WEM (US Biologicals) containing a defined custom amino acid concentration based on the mean physiological concentrations in blood. The values are published in the Human Metabolome Database (Wishart DS, Tzur D, Knox C, et al., HMDB: the Human Metabolome Database. Nucleic Acids Res. 2007 Jan; 35(Database issue):[…]-6. 17202168; which is hereby incorporated by reference in its entirety). […] Cells were maintained in this defined pretreatment media for 24 hours at 37° C., 5% CO2. […] After 24 hours incubation, media was removed for chemokine analysis (MCP1) and the same co treatment was reapplied for an additional 48 hours for a total of 72 hours. Human CCL2 (MCP-1) was measured by ELISA (Human […] DuoSet ELISA, R&D Systems) at 1/20 dilution in 1X Reagent Diluent (Reagent Ancillary Kit 2, R&D Systems). Lipid was normalized to the specific per well cell density determined by nuclei count.

Assay [2] relates to human primary hepatocytes. The experiment in a line: Intracellular lipid accumulation (steatosis) in primary human hepatocytes co-treated with sFA+TNF-α, LipidTOX fluorescence microscopy after 72h. Type of assay: cell-based. Set-up: Rx effect (lipid): scale not given here. The following applies: for Rx effect (Lipid: total lipid area subtracted from baseline sFA+TNFa, normalized to nuclei count): 72 h; for Rx effect (lipid): donor 2. The protocol:
Hepatocyte lipotoxicity appears to be a central driver of hepatic cellular injury via oxidative stress and endoplasmic reticulum (ER) stress. The ability of amino acids combined to therapeutics agents (Rx) to influence steatosis (lipid accumulation) and inflammation in hepatocytes was assessed using human primary hepatocytes purchased from two sources: Lonza and Sekisui Xenotech. […] After 6 hours, cells were washed twice and incubated overnight at 37° C., 5% CO2 in hepatocytes plating media. On day 1, cells were washed twice and incubated for 24h in Hepatocytes defined medium (Corning) supplemented with 2mM Glutamax (Gibco), and 1x Penicillin/Streptomycin in the same conditions described above. […] The values are published in the Human Metabolome Database (Wishart DS, Tzur D, Knox C, et al., HMDB: the Human Metabolome Database. Nucleic Acids Res. 2007 Jan; 35(Database issue):[…]-6. 17202168; which is hereby incorporated by reference in its entirety). […] After 24 hours incubation, media was removed for chemokine analysis (MCP1) and the same co treatment was reapplied for an additional 48 hours for a total of 72 hours. After 72 hours, cells were washed twice with PBS 1x (Gibco), fixed with 4% Paraformaldehyde, and washed twice with PBS 1x (100 ul). […] The LipidTOXTM neutral lipid stain has an extremely high affinity for neutral lipid droplets that was detected by fluorescence microscopy using a high content imager (Molecular Devices). Lipid was normalized to the specific per well cell density determined by nuclei count.

Setting [3] is: Results 1, donors 1 and 2, AA compositions at 20X.

Where “and” joins values, the source holds several entries; their conditions need not be identical. Equal entries are not always repeated.

In the case of `O=C(O)c1ccnc(N2CC(O)(c3ccc(OCc4c(-c5c(Cl)cccc5Cl)noc4C4CC4)cc3Cl)C2)c1` [Cilofexor, 2-(3-(2-chloro-4-((5-cyclopropyl-3-(2,6-dichlorophenyl)isoxazol-4-yl)methoxy)phenyl)-3-hydroxyazetidin-1-yl)isonicotinic acid], the Rx effect was -0.009 in assay [1] (donor 1, Rx 0.031 µM); 0.582 in assay [1] (donor 1, Rx 0.125 µM); 1.210 in assay [1] (donor 1, Rx 0.500 µM); 1.898 in assay [1] (donor 1, Rx 2.000 µM); 0.28 in assay [1] (donor 2, Rx 0.125 µM); 0.47 in assay [1] (donor 2, Rx 0.500 µM). Besides, in assay [1] (donor 2, Rx 2.000 µM), the Rx effect was 0.69 and 0.695. Also, the “MCP1 level / MCP1 secretion compared to baseline (sFA+TNF-α)” value in assay [1] was “slight increase”. Also, in assay [1], the “MCP1 level / MCP1 secretion level compared to the baseline (sFA+TNF-α)” value is on record as “no change or a slight increase in MCP1 secretion level”. The “Rx effect (MCP1)” value in assay [1] (donor 2, Rx 0.0313 µM) is -0.265; in assay [1] (donor 2, Rx 0.125 µM), 0.229; in assay [1] (donor 2, Rx 0.5 µM) it was 0.525; in assay [1] (donor 2, Rx 2 µM), 0.301. The “Rx effect (Lipid: total lipid area subtracted from baseline sFA+TNFa, normalized to nuclei count)” value is recorded as 0.019 in assay [2] (Donor 1, Rx Conc. 0.031 µM); 0.072 in assay [2] (Donor 1, Rx Conc. 0.125 µM); 0.027 in assay [2] (Donor 1, Rx Conc. 0.500 µM); 0.195 in assay [2] (Donor 1, Rx Conc. 2.000 µM); -0.049 in assay [2] (Donor 2, Rx Conc. 0.031 µM); 0.031 in assay [2] (Donor 2, Rx Conc. 0.125 µM). Moreover, the “Rx effect (Lipid: total lipid area subtracted from baseline sFA+TNFa, normalized to nuclei count)” value was 0.104 in assay [2] (Donor 2, Rx Conc. 0.500 µM) and 0.050 in assay [2] (Donor 2, Rx Conc. 2.000 µM). Moreover, the “lipid level compared to baseline (sFA+TNFa)” value in assay [2] (setting [3]) is on record as “no changes”; in assay [2] (Results 2, donor 2) it was “no changes in lipid level”. The “Rx effect (lipid)” value in assay [2] (Rx 0.0313 µM) was -0.110; in assay [2] (Rx 0.125 µM), 0.001; in assay [2] (Rx 0.5 µM), 0.088; in assay [2] (Rx 2 µM), 0.080.

Regarding `O=C(O)c1cc(F)c2nc(N3C4CC[C@H]3C[C@H](OCc3c(-c5ccccc5OC(F)(F)F)noc3C3CC3)C4)sc2c1` [Tropifexor, 2-[(3-endo)-3-[[5-cyclopropyl-3-[2-(trifluoromethoxy)phenyl]-4-isoxazolyl]methoxy]-8-azabicyclo[3.2.1]oct-8-yl]-4-fluoro-6-benzothiazolecarboxylic acid], the Rx effect in assay [1] (donor 1, Rx 0.063 µM) was 0.956; in assay [1] (donor 1, Rx 1.000 µM), 0.877; in assay [1] (donor 1, Rx 4.000 µM) it was 0.658; in assay [1] (donor 2, Rx 0.063 µM) it was -0.16. Besides, in assay [1], the “MCP1 level / MCP1 secretion compared to baseline (sFA+TNF-α)” value is recorded as “slight increase”. Besides, the “Rx effect (Lipid: total lipid area subtracted from baseline sFA+TNFa, normalized to nuclei count)” value in assay [2] (Donor 1, Rx Conc. 0.063 µM) is 0.169; in assay [2] (Donor 1, Rx Conc. 1.000 µM) it was 0.185; in assay [2] (Donor 1, Rx Conc. 4.000 µM) it was 0.214; in assay [2] (Donor 2, Rx Conc. 0.063 µM) it was 0.132; in assay [2] (Donor 2, Rx Conc. 1.000 µM), 0.083; in assay [2] (Donor 2, Rx Conc. 4.000 µM) it was 0.049. Besides, the “lipid level compared to baseline (sFA+TNFa)” value in assay [2] (setting [3]) is reported as “slight increase in lipid level”.

`COc1ccccc1[C@H](Cn1c(=O)n(C(C)(C)C(=O)O)c(=O)c2c(C)c(-c3ncco3)sc21)OC1CCOCC1` [Firsocostat, (R)-2-(1-(2-(2-methoxyphenyl)-2-((tetrahydro-2H-pyran-4-yl)oxy)ethyl)-5-methyl-6-(oxazol-2-yl)-2,4-dioxo-1,4-dihydrothieno[2,3-d]pyrimidin-3(2H)-yl)-2-methylpropanoic acid]: the Rx effect is -0.233 in assay [1] (donor 1, Rx 0.063 µM); -0.827 in assay [1] (donor 1, Rx 1.000 µM); -0.479 in assay [1] (donor 1, Rx 4.000 µM); -0.319 in assay [1] (donor 2, Rx 0.063 µM); -0.614 in assay [1] (donor 2, Rx 1.000 µM); -0.775 in assay [1] (donor 2, Rx 4.000 µM). Also, the “MCP1 level / MCP1 secretion compared to baseline (sFA+TNF-α)” value in assay [1] is listed as “slight reduction in MCP1 secretion”. Also, the “MCP1 level / MCP1 secretion level compared to the baseline (sFA+TNF-α)” value in assay [1] was “no change or a slight reduction in MCP1 secretion level”. Besides, the “Rx effect (MCP1)” value was -0.147 in assay [1] (donor 2, Rx 0.0625 µM); -0.682 in assay [1] (donor 2, Rx 1 µM); -0.510 in assay [1] (donor 2, Rx 4 µM). Also, the “Rx effect (Lipid: total lipid area subtracted from baseline sFA+TNFa, normalized to nuclei count)” value in assay [2] (Donor 1, Rx Conc. 0.063 µM) is recorded as -0.210; in assay [2] (Donor 1, Rx Conc. 1.000 µM) it was -0.412; in assay [2] (Donor 1, Rx Conc. 4.000 µM), -0.317; in assay [2] (Donor 2, Rx Conc. 0.063 µM), -0.246; in assay [2] (Donor 2, Rx Conc. 1.000 µM), -0.449; in assay [2] (Donor 2, Rx Conc. 4.000 µM) it was -0.485. In addition, the “lipid level compared to baseline (sFA+TNFa)” value in assay [2] (setting [3]) was “slight reduction in lipid level”; in assay [2] (Results 2, donor 2) it was “slight reduction in lipid level”. The “Rx effect (lipid)” value in assay [2] (Rx 0.0625 µM) is recorded as -0.147; in assay [2] (Rx 1 µM), -0.404; in assay [2] (Rx 4 µM) it was -0.458.

Regarding `Cc1cc(F)c(C(=O)Nc2cccc(-c3nncn3C(C)C)n2)cc1-n1cnc(C2CC2)c1` [Selonsertib, 5-(4-cyclopropyl-1H-imidazol-1-yl)-2-fluoro-N-(6-(4-isopropyl-4H-1,2,4-triazol-3-yl)pyridin-2-yl)-4-methylbenzamide], the Rx effect in assay [1] (donor 1, Rx 0.063 µM) is recorded as -0.167; in assay [1] (donor 1, Rx 1.000 µM) it was -0.503; in assay [1] (donor 1, Rx 4.000 µM) it was -0.552; in assay [1] (donor 2, Rx 0.063 µM), -0.306; in assay [1] (donor 2, Rx 1.000 µM) it was -0.152; in assay [1] (donor 2, Rx 4.000 µM), -0.462. In addition, in assay [1], the “MCP1 level / MCP1 secretion compared to baseline (sFA+TNF-α)” value was “slight reduction in MCP1 secretion”. Further, the “MCP1 level / MCP1 secretion level compared to the baseline (sFA+TNF-α)” value in assay [1] is given as “no change or a slight reduction in MCP1 secretion level”. In addition, the “Rx effect (MCP1)” value in assay [1] (donor 2, Rx 0.0625 µM) is recorded as 0.004; in assay [1] (donor 2, Rx 1 µM), -0.411; in assay [1] (donor 2, Rx 4 µM), -0.463. For the same molecule, the “Rx effect (Lipid: total lipid area subtracted from baseline sFA+TNFa, normalized to nuclei count)” value in assay [2] (Donor 1, Rx Conc. 0.063 µM) is given as -0.060; in assay [2] (Donor 1, Rx Conc. 1.000 µM) it was -0.154; in assay [2] (Donor 1, Rx Conc. 4.000 µM), -0.152; in assay [2] (Donor 2, Rx Conc. 0.063 µM) it was -0.096; in assay [2] (Donor 2, Rx Conc. 1.000 µM) it was -0.164; in assay [2] (Donor 2, Rx Conc. 4.000 µM), -0.307. Also, the “lipid level compared to baseline (sFA+TNFa)” value is reported as “slight reduction in lipid level” in assay [2] (setting [3]) and “slight reduction in lipid level” in assay [2] (Results 2, donor 2). Moreover, the figures for the “Rx effect (lipid)” value in assay [2] (Rx 0.0625 µM), in assay [2] (Rx 1 µM) and in assay [2] (Rx 4 µM) were -0.024, -0.156 and -0.178, respectively.
